Reference: US9586947B2, “Imidazoline derivatives, preparation methods thereof, and their applications in medicine” (priority 2012, dated 2017)
Read-outs that look alike come from different tables or passages of the source.

What was measured:
[1] = test system: PSA secretion of LNCaP cells; assay: Inhibitory activity on PSA secretion of LNCaP cells; format: cell-based; conditions: Homo sapiens, 96 h, read-out: IC50 (inhibition of PSA secretion of LNCaP cells)
Method: The following in vitro assay was performed to determine the activity of the compounds of the present invention for inhibiting prostate specific antigen (PSA) secretion of LNCaP cells.
(11). Testosterone culture medium: RIPM 1640 culture medium, 10% CS-FBS, 1% Pen Strep, 1 nM testosterone
LNCaP cells were subcultured in cell culture medium, resuspended in active carbon culture medium, and then inoculated into a 96-well plate (100 μl/well) with an inoculation density of 5×10^4 cells/well.
The test compounds were dissolved in DMSO (dimethyl sulfoxide) and prepared as a 10 mM stock solution. When used, the stock solution was diluted with 5×DMSO and then diluted with a threefold gradient to obtain 8 gradient concentrations. Then, the 8 gradient concentrations were each diluted with 20× testosterone culture medium, in order to ensure DMSO concentration in each culture system was 0.5%. Diluted test compounds remained to be tested.
10 μl of diluted test compounds were added to a 96-well plate and mixed gently. 10 μl of 0.5% DMSO diluted with active carbon culture medium was added to the blank group, and 10 μl of 0.5% DMSO diluted with testosterone culture medium was added to the control group. The 96-well plate was cultured in an incubator under the conditions of 37° C. and 5% CO2.
After 4 days of incubation, 60 μl of cell cultural supernatants were collected, and the OD450 value per well was measured on a NOVO Star microplate reader using PSA kit (Abnova, KA0208).
(§1) IC50 values were calculated from the data of the inhibition rates of the test compounds at various concentrations.

LNCaP cells = assay: Proliferation inhibition of LNCaP cells (CCK-8); format: cell-based; conditions: Homo sapiens, 144 h, cultured 3 + 3 days, CCK-8, OD at 450 nm
Method: The following in vitro assay was performed to determine the activity of the compounds of the present invention for inhibiting the proliferation of LNCaP cells.
(1). Cell counting reagent CCK-8 (DOJINDO, CK04)
See experimental procedure from Test Example 1.
After LNCaP cells were cultured for 3 days, the culture medium, test compounds, blank group, and control group were renewed with half of the liquid volume, and were cultured for another 3 days. Then, all 96-well plates were mixed gently with 10 μl of CCK-8 and cultured in an incubator for 2-3 hours under the conditions of 37° C. and 5% CO2. The OD value per well was measured at 450 nm on a Victor3 microplate reader.
as §1

[2] = Pharmacokinetics assay in rats, intragastric administration; format: in vivo; conditions: Sprague-Dawley, rat, in vivo, po, male SD rats, 5 mg/kg; for Vd/F: read-out: Apparent Distribution Volume Vz/F; for AUC: read-out: Area Under Curve AUC; for CL/F: read-out: Clearance CLz/F; for half-life: read-out: Half-Life T½ (converted); for MRT: read-out: Mean Residence Time MRT; for Cmax: read-out: Plasma Conc. Cmax
Method: Male rats were used as test animals. The compounds of Example 6, Example 9, Example 11, Example 13, Example 15, Example 16, Example 17, Example 44, and Example 45 were administered intragastrically to rats to determine the drug concentration in plasma at different time points by LC/MS/MS method. The pharmacokinetic behavior of the compounds of the present invention was studied and evaluated in rats.
27 healthy adult male Sprague-Dawley (SD) rats, purchased from SINO-BRITISH SIPPR/BK LAB. ANIMAL LTD., CO, Certificate No.: SCXK (Shanghai) 2008-0016, were divided into 9 groups, with 3 rats in each group.
The appropriate amount of test compounds was weighed and mixed with 0.5% CMC-Na to prepare a 0.5 mg/mL suspension by an ultrasonic method.
After an overnight fast, 27 SD rats were divided into 9 groups, and administered the compounds intragastrically at a dose of 5.0 mg/kg and an administration volume of 10 mL/kg.
Compounds of Example 6, Example 9, Example 11, Example 13, Example 15, Example 16, Example 17, Example 44, and Example 45 were administered intragastrically to rats. Blood samples (0.1 mL) were taken from the orbital sinus before administration, and at 0.5 h, 1.0 h, 2.0 h, 3.0 h, 4.0 h, 6.0 h, 8.0 h, 11.0 h, and 24.0 h after administration, stored in heparinized tubes, and centrifuged for 5 minutes at 3,500 rpm to separate blood plasma. The plasma samples were stored at −20° C. The rats were fed 2 hours after administration.
The concentration of the different test compounds in rat plasma after intragastrically administering the test compounds was determined by LC-MS/MS method. The linearity of the method is 1.00-2000 ng/ml. Plasma samples were analyzed after protein precipitation was accomplished by the addition of methanol.

[3] = LNCaP cells, 1 nM testosterone medium, 4 days of incubation, PSA kit OD450

Which IC50 [1, 3] does the source give for `CC1(C)C(=O)N(c2ccc(C#N)c(C(F)(F)F)c2)C(=S)N1c1ccc(O[C@@H]2CCOC2)nc1` [Example 21, (R)-4-(4,4-Dimethyl-5-oxo-3-(6-((tetrahydrofuran-3-yl)oxy)pyridin-3-yl)-2-thioxoimidazolidin-1-yl)-2-(trifluoromethyl)benzonitrile] here?
Its IC50 is 0.076 µM.

What about the IC50 (LNCaP cells) of the same compound?
Its IC50 is 0.092 µM.

Which results are given for `CC1(C)C(=O)N(c2ccc(C#N)c(C(F)(F)F)c2)C(=S)N1c1ccc(OC(F)F)nc1` [Example 30, 4-(3-(6-(Difluoromethoxy)pyridin-3-yl)-4,4-dimethyl-5-oxo-2-thioxoimidazolidin-1-yl)-2-(trifluoromethyl)benzonitrile]?
IC50 [1, 3]: 0.017 µM; IC50 (LNCaP cells): 0.058 µM

With `CN1CC[C@H](Oc2ccc(N3C(=S)N(c4ccc(C#N)c(C(F)(F)F)c4)C(=O)C3(C)C)cc2F)C1` [Example 27, (S)-4-(3-(3-Fluoro-4-((1-methylpyrrolidin-3-yl)oxy)phenyl)-4,4-dimethyl-5-oxo-2-thioxoimidazolidin-1-yl)-2-(trifluoromethyl)benzonitrile] as the compound, how does the IC50 [1, 3] read?
The IC50 was 0.083 µM.

With `CC1(C)C(=O)N(c2ccc(C#N)c(C(F)(F)F)c2)C(=S)N1c1ccc(OC2CCNCC2)c(F)c1` [Example 19, 4-(3-(3-Fluoro-4-((piperidin-4-yl)oxy)phenyl)-4,4-dimethyl-5-oxo-2-thioxoimidazolidin-1-yl)-2-(trifluoromethyl)benzonitrile] as the compound, how does the IC50 [1, 3] read?
Its IC50 is 0.094 µM.

And the IC50 (LNCaP cells)?
The IC50 was 0.194 µM.

Which IC50 [1, 3] does the source give for `CC1(C)C(=O)N(c2ccc(C#N)c(C(F)(F)F)c2)C(=S)N1c1ccc(OCCCS(C)(=O)=O)c(F)c1` [Example 22, 4-(3-(3-Fluoro-4-(3-(methylsulfonyl)propoxy)phenyl)-4,4-dimethyl-5-oxo-2-thioxoimidazolidin-1-yl)-2-(trifluoromethyl)benzonitrile] here?
The IC50 was 0.021 µM.

And the IC50 (LNCaP cells)?
Its IC50 is 0.134 µM.

With `CC1(C)C(=O)N(c2ccc(C#N)c(C(F)(F)F)c2)C(=S)N1c1ccc(OC2COC2)c(F)c1` [Example 41, 4-(3-(3-Fluoro-4-((oxetan-3-yl)oxy)phenyl)-4,4-dimethyl-5-oxo-2-thioxoimidazolidin-1-yl)-2-(trifluoromethyl)benzonitrile] as the compound, how does the IC50 [1, 3] read?
The IC50 was 0.024 µM.

What about the IC50 (LNCaP cells) of the same compound?
The IC50 was 0.283 µM.

With `Cc1cc(N2C(=O)C(C)(C)N(c3ccc(OCC4(N)CC4)c(F)c3)C2=S)ccc1C#N` [Example 38, 4-(3-(4-((1-Aminocyclopropyl)methoxy)-3-fluorophenyl)-4,4-dimethyl-5-oxo-2-thioxoimidazolidin-1-yl)-2-methylbenzonitrile] as the compound, how does the IC50 [1, 3] read?
The IC50 was 0.033 µM.

With `CN1CCC(Oc2ccc(N3C(=S)N(c4ccc(C#N)c(C(F)(F)F)c4)C(=O)C3(C)C)cc2F)C1` (stereo not drawn) [Example 29, 4-(3-(3-Fluoro-4-((1-methylpyrrolidin-3-yl)oxy)phenyl)-4,4-dimethyl-5-oxo-2-thioxoimidazolidin-1-yl)-2-(trifluoromethyl)benzonitrile] as the compound, how does the IC50 [1, 3] read?
Its IC50 is 0.085 µM.

What about the IC50 (LNCaP cells) of the same compound?
Its IC50 is 0.08 µM.

For `CC1(C)C(=O)N(c2ccc(C#N)c(C(F)(F)F)c2)C(=S)N1c1ccc(O[C@@H]2COC[C@H]2O)c(F)c1` (racemic) [Example 7, 4-(3-(3-Fluoro-4-(((3R,4R/3S,4S)-4-hydroxytetrahydrofuran-3-yl)oxy)phenyl)-4,4-dimethyl-5-oxo-2-thioxoimidazolidin-1-yl)-2-(trifluoromethyl)benzonitrile], which IC50 ([1]; LNCaP) is on record?
The IC50 was 0.023 µM.

For `CC1(C)C(=O)N(c2ccc(C#N)c(C(F)(F)F)c2)C(=S)N1c1ccc(OC2CCOCC2)c(F)c1` [Example 4, 4-(3-(3-Fluoro-4-((tetrahydro-2H-pyran-4-yl)oxy)phenyl)-4,4-dimethyl-5-oxo-2-thioxoimidazolidin-1-yl)-2-(trifluoromethyl)benzonitrile], which IC50 [1, 3] is on record?
The IC50 was 0.093 µM.

For `CN1CC(O)C(Oc2ccc(N3C(=S)N(c4ccc(C#N)c(C(F)(F)F)c4)C(=O)C3(C)C)cc2F)C1` (stereo not drawn) [Example 47, 4-(3-(3-Fluoro-4-((4-hydroxy-1-methylpyrrolidin-3-yl)oxy)phenyl)-4,4-dimethyl-5-oxo-2-thioxoimidazolidin-1-yl)-2-(trifluoromethyl)benzonitrile], which IC50 [1, 3] is on record?
The IC50 was 0.021 µM.

Which IC50 ([1]; LNCaP) does the source give for `CC1(C)C(=O)N(c2ccc(C#N)c(C(F)(F)F)c2)C(=S)N1c1ccc(O[C@@H]2COC[C@H]2O)cc1` (racemic) [Example 14, 4-(3-(4-(((3R,4R/3S,4S)-4-Hydroxytetrahydrofuran-3-yl)oxy)phenyl)-4,4-dimethyl-5-oxo-2-thioxoimidazolidin-1-yl)-2-(trifluoromethyl)benzonitrile] here?
The IC50 was 0.019 µM.

Which results are given for `CC1(C)C(=O)N(c2ccc(C#N)c(C(F)(F)F)c2)C(=S)N1c1ccc(OCCO)cc1` [Example 17, 4-(3-(4-(2-Hydroxyethoxy)phenyl)-4,4-dimethyl-5-oxo-2-thioxoimidazolidin-1-yl)-2-(trifluoromethyl)benzonitrile]?
IC50 ([1]; LNCaP): 0.024 µM; Vd/F [2]: 3.76 ± 0.591 L/kg; AUC [2]: 12200 ± 1520 ng·h/mL; CL/F [2]: 6.88 ± 0.89 mL/min/kg; half-life [2]: 6.31 ± 0.5 h; MRT [2]: 10.8 ± 0.8 h; Cmax [2]: 864 ± 86 ng/mL

With `CC1(C)C(=O)N(c2ccc(C#N)c(C(F)(F)F)c2)C(=S)N1c1ccc(OC[C@H](O)CO)c(F)c1` [Example 50, (R)-4-(3-(4-(2,3-Dihydroxypropoxy)-3-fluorophenyl)-4,4-dimethyl-5-oxo-2-thioxoimidazolidin-1-yl)-2-(trifluoromethyl)benzonitrile] as the compound, how does the IC50 ([1]; LNCaP) read?
Its IC50 is 0.043 µM.

Which results are given for `CC1(C)C(=O)N(c2ccc(C#N)c(C(F)(F)F)c2)C(=S)N1c1ccc(O[C@H]2COC[C@@H]2O)cc1` [Example 16, 4-(3-(4-(((3S,4S)-4-hydroxytetrahydrofuran-3-yl)oxy)phenyl)-4,4-dimethyl-5-oxo-2-thioxoimidazolidin-1-yl)-2-(trifluoromethyl)benzonitrile]?
IC50 ([1]; LNCaP): 0.012 µM; Vd/F [2]: 3.59 ± 0.662 L/kg; AUC [2]: 23300 ± 5900 ng·h/mL; CL/F [2]: 3.71 ± 0.84 mL/min/kg; half-life [2]: 11.3 ± 1.3 h; MRT [2]: 18.4 ± 2.6 h; Cmax [2]: 971 ± 147 ng/mL

With `CC1(C)C(=O)N(c2ccc(C#N)c(C(F)(F)F)c2)C(=S)N1c1ccc(OCC2(N)CC2)nc1` [Example 11, 4-(3-(6-((1-Aminocyclopropyl)methoxy)pyridin-3-yl)-4,4-dimethyl-5-oxo-2-thioxoimidazolidin-1-yl)-2-(trifluoromethyl)benzonitrile] as the compound, how does the IC50 ([1]; LNCaP) read?
Its IC50 is 0.035 µM.

And the Vd/F [2]?
The Vd/F was 9.94 ± 0.633 L/kg.

And the AUC [2]?
The AUC was 11400 ± 1380 ng·h/mL.

And the CL/F [2]?
Its CL/F is 7.35 ± 0.87 mL/min/kg.

What about the half-life [2] of the same compound?
The half-life was 15.8 ± 2.2 h.

What about the MRT [2] of the same compound?
The MRT was 23.2 ± 2.9 h.

And the Cmax [2]?
The Cmax was 430 ± 14 ng/mL.

With `CC1(C)C(=O)N(c2ccc(C#N)c(C(F)(F)F)c2)C(=S)N1c1ccc(OC[C@@H](O)CO)c(F)c1` [Example 49, (S)-4-(3-(4-(2,3-Dihydroxypropoxy)-3-fluorophenyl)-4,4-dimethyl-5-oxo-2-thioxoimidazolidin-1-yl)-2-(trifluoromethyl)benzonitrile] as the compound, how does the IC50 ([1]; LNCaP) read?
Its IC50 is 0.035 µM.

Which IC50 [1, 3] does the source give for `CC(=O)N1CC(O)C(Oc2ccc(N3C(=S)N(c4ccc(C#N)c(C(F)(F)F)c4)C(=O)C3(C)C)cc2F)C1` (stereo not drawn) [Example 46, 4-(3-(4-((1-Acetyl-4-hydroxypyrrolidin-3-yl)oxy)-3-fluorophenyl)-4,4-dimethyl-5-oxo-2-thioxoimidazolidin-1-yl)-2-(trifluoromethyl)benzonitrile] here?
Its IC50 is 0.047 µM.
